Experiments:
PARG = target: T1, PARG (Homo sapiens, UniProt Q86W56); experiment: PAR digestion assay (dot blotting) for PARG inhibition; format: biochemical; conditions: 0.25 nM PARG incubated with 10 μM PAR for 20 min at room temperature; dot blotting with anti-PAR antibody
T1 construct: made in house; host or cells: Sf9 insect cells
Method: Compounds (FIG. 4) were synthesized to examine the efficacy of PARG inhibition by dot blotting assay (Example 5). 0.25 nM PARG was incubated with 10 μM PAR for 20 min at room temperature with or without inhibitors. PAR-digestion results were analyzed using dot blotting with anti-PAR antibody.
The array includes compounds in FIG. 4 (PG002 (“002”), PG006 (“006”), PG008 (“008”), PG010 (“010”), and PG021(“021”)), PC (positive control, PAR only), NC (negative control, no inhibitor), and COH34 (“34”, positive control for PARG inhibition). In FIG. 5A, 0.3X means 3-fold dilution.
Recombinant PARG protein from Sf9 cells were incubated with PAR purified from FhCh-treated PARG-knock down HCT116 cells (10 μM, calculated as the ADP-ribose unit) and DMSO (Negative control, NC) or small molecules for 20 minutes at room temperature. Positive control (PC) only contains PAR in PBS. Samples (1 μl) were spotted onto a nitrocellulose membrane. Then, the membrane was backed for 30 minutes at 60° C. and blocked with TBST buffer (0.15 M NaCl, 0.01 M Tris-HCl at pH 7.4, 0.1% Tween 20) supplemented with 5% milk for 30 minutes at room temperature. After washing with TBST, the membrane was incubated with monoclonal PAR antibody (Trevigen, Inc.) overnight at 4° C. Following standard Western blotting method, the signals were visualized by chemiluminescent detection (FIG. 5B).

[1] = tested on: HCC1937 (BRCA1-mutant breast cancer cells); experiment: Colony formation (cell viability) assay in HCC1937 cells; format: cell-based; conditions: HCC1937, 1 μM PARG inhibitor, 14-day culture, colonies >50 cells counted
Method: To examine the efficacy of PG compounds in DNA repair-defective cancer cells, colony formation assays were performed using HCC1937 (BRCA1-mutant breast cancer cells) with or without 1 μM PARG inhibitors (PG002, PG006, PG008, and PG010). COH34 was used as a positive control. HCC1937 (˜1000 cells) were seeded into six-well plates and then treated by various doses of PARG inhibitors. After a 14-day culture, the viable cells were fixed by methanol and stained with crystal violet. The number of colonies (>50 cells for each colony) was calculated. The results were summarized in the histograms (FIG. 7).

T1 sequence (Q86W56 whole entry): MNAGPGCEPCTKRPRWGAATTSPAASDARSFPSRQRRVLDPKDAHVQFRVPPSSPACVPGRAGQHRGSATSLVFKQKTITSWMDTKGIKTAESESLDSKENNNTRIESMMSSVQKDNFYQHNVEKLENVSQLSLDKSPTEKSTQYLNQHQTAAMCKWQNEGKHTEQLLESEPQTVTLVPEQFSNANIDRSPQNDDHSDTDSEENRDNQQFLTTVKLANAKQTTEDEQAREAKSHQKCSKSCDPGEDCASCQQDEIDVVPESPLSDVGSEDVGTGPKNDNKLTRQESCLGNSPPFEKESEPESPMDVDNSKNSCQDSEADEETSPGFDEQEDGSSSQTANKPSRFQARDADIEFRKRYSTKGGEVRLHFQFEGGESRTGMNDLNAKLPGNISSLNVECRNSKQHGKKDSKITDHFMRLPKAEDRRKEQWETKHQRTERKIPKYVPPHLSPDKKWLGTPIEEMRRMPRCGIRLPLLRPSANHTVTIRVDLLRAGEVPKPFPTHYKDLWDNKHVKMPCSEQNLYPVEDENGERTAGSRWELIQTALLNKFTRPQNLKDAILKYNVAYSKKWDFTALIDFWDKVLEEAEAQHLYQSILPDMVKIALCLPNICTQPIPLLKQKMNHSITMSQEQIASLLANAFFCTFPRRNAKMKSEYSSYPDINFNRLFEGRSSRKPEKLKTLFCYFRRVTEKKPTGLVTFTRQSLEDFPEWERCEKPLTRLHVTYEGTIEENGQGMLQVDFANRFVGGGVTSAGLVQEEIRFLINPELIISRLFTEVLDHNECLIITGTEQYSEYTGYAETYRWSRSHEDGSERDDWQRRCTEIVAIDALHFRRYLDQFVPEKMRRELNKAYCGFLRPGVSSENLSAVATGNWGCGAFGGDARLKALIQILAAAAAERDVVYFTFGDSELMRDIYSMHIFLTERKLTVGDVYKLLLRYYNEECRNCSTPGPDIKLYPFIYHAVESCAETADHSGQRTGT

| SMILES | inhibitory activity for PARG (PARG) | death of the tumor cells (colony formation) [1] |
| --- | --- | --- |
| O=C(N/N=C/c1c(O)ccc2ccccc12)c1ccc(Cl)cn1 [PG002, 5-chloro-N′-[(1E)-(2-hydroxynaphthalen-1-yl)methylidene]pyridine-2-carbohydrazide] | good inhibitory activity | increased death of the tumor cells |
| O=C(N/N=C/c1nccc2ccccc12)c1ccc(Cl)cc1 [PG006, 4-chloro-N′-[(1E)-(isoquinolin-1-yl)methylidene]benzohydrazide] | good inhibitory activity | increased death of the tumor cells |
| O=C(N/N=C/c1c(O)cnc2ccccc12)c1ccc(Cl)cc1 [PG008, 4-chloro-N-[(1E)-(3-hydroxyquinolin-4-yl)methylidene]benzohydrazide] | good inhibitory activity | increased death of the tumor cells |
| O=C(N/N=C/c1c(O)ccc2cccnc12)c1ccc(Cl)cc1 [PG010, 4-chloro-N′-[(1E)-(7-hydroxyquinolin-8-yl)methylidene]benzohydrazide] | good inhibitory activity | increased death of the tumor cells |
| O=S(=O)(N/N=C/c1c(O)ccc2ccccc12)c1ccc(Cl)cn1 [PG021, 5-chloro-N′-[(1E)-(2-hydroxynaphthalen-1-yl)methylidene]pyridine-2-sulfonohydrazide] | good inhibitory activity | – |
